Reference: patent US20250057872A1, “INNATE IMMUNOMODULATORY EFFECT OF GINSENG BERRY POLYSACCHARIDES IN IMMUNOCOMPROMISED CONDITIONS” (GANGNEUNG-WONJU NATIONAL UNIVERSITY INDUSTRY ACADEMY …, priority 2022, published 2025)

Experiments:
splenic lymphocytes = assay: Splenic lymphocyte proliferation (EZ-Cytox) of splenocytes from treated mice, stimulated with Con A or LPS; assay type: in vivo, BALB/c mice; conditions: CY-treated group (80 mg/kg IP) compared to the normal group
Procedure: (§1) In the present invention, 40 mice were randomly divided into 8 groups (n=5 per group) and variously treated according to Table 1.
(§2) Cyclophosphamide (CY) was used to induce immunosuppressive models by intraperitoneal (IP) injection at a dose of 80 mg/kg body weight (BW). […] In addition, ginseng was used with a commercially available product, and mice were sacrificed 24 hours after the last treatment of samples in Table 1.

NK cells = assay: NK cell-mediated cytotoxicity assay, splenocytes co-cultured with YAC-1 cells; assay type: in vivo, BALB/c mice; conditions: CY-treated group (80 mg/kg IP); effector:target 50:1
Procedure: as §1, §2

[1] = system: mice immunosuppressed by administering cyclophosphamide (CY); assay: Spleen size and spleen index in cyclophosphamide (CY)-immunosuppressed mice; assay type: in vivo, BALB/c mice; conditions: CY (80 mg/kg IP) mice, CY group compared to normal group, LEV 40 mg/kg, red ginseng 100 mg/kg, GBPs 50, 100, 250, 500 mg/kg BW orally; for spleen size: FIG. 1; for spleen index: FIG. 2
Procedure: Six-week-old male BALB/c mice (21-23 g) were purchased from the Central Lab, Animal Inc. (Korea) and housed under standard conditions with temperature maintained at 22±2° C. and a 12-h/12-h dark/light cycle.
as §1, §2
The spleen was dissected and weighed. The spleen index was calculated according to Formula below:
Spleen index (mg/g)=spleen weight/body weight of mouse [Formula]

[2] = system: immune-related genes (IL-1β, IL-2, IL-4, IL-6, TNF-α, IFN-γ, TLR-4, COX-2); set-up: species or system BALB/c mice; conditions: mouse, in vivo
Procedure: as §1, §2

SMILES	Con A-stimulated cell proliferation, reduction (splenic lymphocytes; Con A 5 μg/ml) [%]	LPS-stimulated cell proliferation, reduction (splenic lymphocytes; LPS 10 μg/ml) [%]	activity of NK cells (NK cells) [%]	spleen size [1]	spleen index [1]	mRNA expression levels of immune-related genes IL-2, IL-4, IL-6, TNF-α, IFN-γ, TLR-4 and COX-2 [2]
O=P1(N(CCCl)CCCl)NCCCO1 (centres unmarked) [CY, Cyclophosphamide]	48.1	57.1	42.9	decreases in both spleen size and spleen indices	decreases in both spleen size and spleen indices	lower than those of the normal group
c1ccc([C@H]2CN3CCSC3=N2)cc1 [LEV, Levamisole]	–	–	–	increased spleen size and indices	increased spleen size and indices	–
